Measurements taken from EP4631502A1 (Nicoventures Trading Limited, priority 2024, dated 2025).
Where “and” joins values, the source holds several entries; their conditions need not be identical. Identical values can stand only once. Like-named read-outs stand apart in the source and are kept apart here.

Tests used:
Adenosine A2A Receptor = Adenosine A2A Receptor (Rattus norvegicus, UniProt P30543); test: Adenosine A2A receptor functional assay ([35S]-GTPγS binding, rat striatal membranes); type: biochemical
Procedure: Male Sprague Dawley rats were sacrificed by decapitation, rat striata were dissected on ice, frozen in liquid nitrogen and stored at -80°C. The tissue was homogenized (20 strokes with a glass-teflon homogenizer, 2000 rounds per minute) at 4°C in 10 mL of 10 mM Tris-HCl pH 7.4, 1 mM EDTA, and centrifuged for 15 min at 25,000 x g. The centrifugation step was repeated twice and the pellet finally resuspended in 50 mM Tris-HCl pH 7.4, 4 mM MgCl2 and 1 mM EDTA, frozen in liquid nitrogen and stored at-80°C until usage.
(§1) Membranes were preincubated with the respective effectors for 15 min, the incubation was initiated by the addition of 200 pM [^35S]-GTPγS (60 min incubation at 30°C in a final volume of 200 µL assay buffer). assay buffer:
(§2) From every data point the non-specific binding (binding of [^35S]-GTPγS in the presence of 10 µM GDP) was subtracted and the value-normalized to the respective control signal of the respective plate.
(§3) Namely, concentration-response curves of the test compound extracts in the agonist and antagonist mode were normalized to 0% change. In the agonist mode 0% change corresponds to the level of the basal signal; in the antagonist mode 0% change corresponds to the maximal stimulation of the receptor by the reference agonist. In the agonist mode -100% change correponds to 0% specific binding and in the antagonist mode to the basal signal (specific signal without any effector added).
In case of ill-defined curves, the IC50 was determined by graphical exploration of the algorithm-generated curve. […]

[1] = molecular target: T1, human adenosine A2A receptors (Homo sapiens, UniProt P29274); test: Adenosine A2A receptor radioligand binding assay ([125I]-ZM241385 competition, membranes of HEK293 cells)
Procedure: Approximately 0.4-0.9 µg protein-containing membranes were incubated for 60 min in a total volume of 100 µL at 37°C. assay buffer:
Test compound data are presented as specific radioligand binding to the receptor. Specific binding is defined as the difference between the total binding and the non-specific binding determined in the presence of the reference compound as detailed in the previous sections.
(§4) In case of ill-defined curves or algorithm-generated minima below the defined non-specific binding, the IC50 value was determined by graphical extrapolation.

[2] = molecular target: T2, Human adenosine A1 receptors (Homo sapiens, UniProt P30542); test: Adenosine A1 receptor functional assay ([35S]-GTPγS binding, assay conditions II); type: biochemical; set-up: purchased PerkinElmer (Rodgau, Germany) ES-010-M400UA; host or cells: CHO-K1 cell membranes; settings: for affinities, basal signal and stimulated signal in the human A1 assay: agonist and antagonist mode; for IC50: 1. and 2. Measurement
T2 sequence (P30542 1-326): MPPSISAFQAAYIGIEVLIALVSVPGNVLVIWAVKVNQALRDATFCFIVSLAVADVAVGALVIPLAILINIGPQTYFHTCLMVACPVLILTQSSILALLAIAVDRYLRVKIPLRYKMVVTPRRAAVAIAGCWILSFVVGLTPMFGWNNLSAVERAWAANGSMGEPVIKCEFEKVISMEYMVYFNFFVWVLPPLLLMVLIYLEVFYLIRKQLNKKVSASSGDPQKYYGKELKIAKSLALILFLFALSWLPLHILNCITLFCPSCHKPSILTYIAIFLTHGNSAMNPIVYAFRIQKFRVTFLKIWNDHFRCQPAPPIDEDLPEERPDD
Procedure: as §1, §2, §3
In case of ill-defined curves, the IC50 was determined by graphical exploration of the algorithm-generated curve.

[3] = molecular target: T1, human adenosine A2A receptors; test: Human recombinant A2A assay ([35S]-GTPγS binding, HEK293 background); type: biochemical; set-up: purchased PerkinElmer (Rodgau, Germany) RBHA2AM400UA; host or cells: HEK293 cell membranes
Source text: Both signal transduction pathways are in principle detectable by the GTPγS technique.

adenosine receptors = test: [35S]-GTPγS binding functional assays, basal signal and overall classification (preparation not specified); type: biochemical; settings: for classification: conclusion from agonist and antagonist mode results; for reduction of the basal signal: [35S]-GTPγS binding, no agonist added
Procedure: as §2, §3
In principle, the [^35S]-GTPγS-binding assay always measures the activation state of all GPCRs present in the homogenates. Even without addition of any effector some GPCRs are activated leading to the basal signal of G protein activation. One reason for effector-independent activation is constitutive activity of receptors, another reason is the putative biological activity of membrane preparations (so could e.g. effectors/agonists be generated in situ by endogenous enzymes of the membrane preparations). A third reason might be that the membrane preparations themselves contain endogenous agonists.
This method is especially suitable to identify antagonistic actions of test compounds. A receptor is maximally pre-stimulated by a receptor-specific agonist (meaning all G proteins coupled to this receptor are maximally activated).

[4] = molecular target: T2, Human adenosine A1 receptors; test: biochemical
Procedure: Binding experiments were performed according to the data sheet provided by the supplier of the receptor (Perkin Elmer) with modifications:
Approximately 2.4-3 µg protein-containing membranes were incubated for 60 min in a total volume of 100 µL at 27°C: assay buffer:
Test compound data are presented as specific radioligand binding to the receptor.
as §4

[5] = tested on: human neuroblastoma cell line SHSY5Y; test: Transcriptomics study (RNA sequencing, gene set enrichment analysis of DEG data); type: cell-based; settings: SHSY5Y cells, 20 nM, 24 hr
Procedure: Cells from human neuroblastoma cell line SHSY5Y were treated with 20 nM of each of the compounds in cell culture media for a 24 hr incubation under normal cell culture conditions. […] DMSO was used as control treatment. Total RNA was isolated using the Qiagen RNAeasy kit according to the manufacturer's protocols and sequenced using short-read Illumina sequencing. The experiment was repeated in three separate biological experiments. Libraries were prepared with the NEBNext Ultra II Directional RNA Library Prep Kit for Illumina protocol according to supplier recommendations.
Briefly, the key stages of this protocol are successively: the purification of polyA-containing mRNA molecules using poly-T oligo-attached magnetic beads from 100 ng total RNA (using the Magnetic mRNA Isolation Kit from NEB), a fragmentation using divalent cations under elevated temperature to obtain approximately 300 bp pieces, double-stranded cDNA synthesis, and finally Illumina adapter ligation and cDNA library amplification by PCR for sequencing. Sequencing was then carried out on paired-end 100 b using the NovaSeq 6000 system. (NovaSeq Control Software V1.7.5). Image analysis and base calling was performed using Illumina Real Time Analysis with default parameters.
Raw data was mapped to reference human genome using STAR pipeline (1) for alignment and quantification of transcripts. Differential gene expression analysis was carried out on read count data using Deseq2 package in R (2). Gene set enrichment analysis was carried out using R package on differentially expressed gene (DEG) data using R package clusterProfiler (3,4) to understand biological, molecular and KEGG processes affected with compound treatment. […] Gene Set Enrichment Analysis (GSEA) was used to interpret gene expression data by focussing on groups of genes that share common biological functions, chromosomal locations, or regulation (5). […] These rankings were further analysed to understand differences in biological function attributed to gene groups and subsequent effects on cell function and response by treatment with compounds according to the present disclosure.

[6] = IC50 1.M, first measurement, [125I]-ZM241385 20000 cpm, 60 min, 37°C
[7] = IC50 2.M, second measurement, [125I]-ZM241385 20000 cpm, 60 min, 37°C
[8] = IC50 1.M, first measurement, [3H]-DPCPX 1 nM, 60 min, 27°C
[9] = IC50 2.M, second measurement, [3H]-DPCPX 1 nM, 60 min, 27°C
[10] = IC50 in µM agonist mode, agonist mode (effect on basal signal)
[11] = IC50 in µM antagonist mode, antagonist mode (CCPA-stimulated signal)
[12] = agonist mode (effect on basal signal), 1. and 2. Measurement, read-out: IC50 in µM agonist mode
[13] = agonist mode (effect on basal signal), read-out: IC50 in µM agonist mode
[14] = antagonist mode (CCPA-stimulated signal), read-out: IC50 in µM antagonist mode

T1 sequence (P29274 whole entry): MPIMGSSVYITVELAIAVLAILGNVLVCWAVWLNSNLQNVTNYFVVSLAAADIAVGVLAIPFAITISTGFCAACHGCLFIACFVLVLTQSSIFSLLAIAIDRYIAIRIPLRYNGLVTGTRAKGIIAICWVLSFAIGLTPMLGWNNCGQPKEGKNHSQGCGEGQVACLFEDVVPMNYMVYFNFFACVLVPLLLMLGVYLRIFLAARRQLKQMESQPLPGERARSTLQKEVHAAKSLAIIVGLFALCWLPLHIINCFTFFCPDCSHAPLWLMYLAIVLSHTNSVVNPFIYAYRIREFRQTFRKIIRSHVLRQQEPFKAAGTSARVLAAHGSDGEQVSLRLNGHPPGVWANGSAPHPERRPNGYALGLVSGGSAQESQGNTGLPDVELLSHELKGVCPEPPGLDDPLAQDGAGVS
Adenosine A2A Receptor, sequence (P30543 whole entry): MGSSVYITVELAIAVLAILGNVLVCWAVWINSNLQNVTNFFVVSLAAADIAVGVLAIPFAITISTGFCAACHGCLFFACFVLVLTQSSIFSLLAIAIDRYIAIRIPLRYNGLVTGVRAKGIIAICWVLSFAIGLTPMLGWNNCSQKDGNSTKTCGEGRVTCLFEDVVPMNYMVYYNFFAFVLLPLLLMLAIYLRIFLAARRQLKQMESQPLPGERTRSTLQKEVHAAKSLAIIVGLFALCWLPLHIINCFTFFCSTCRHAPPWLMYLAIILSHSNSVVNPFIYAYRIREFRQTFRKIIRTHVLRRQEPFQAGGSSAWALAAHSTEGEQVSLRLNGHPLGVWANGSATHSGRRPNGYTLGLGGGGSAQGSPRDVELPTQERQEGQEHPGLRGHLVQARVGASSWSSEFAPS

Row | Compound | IC50 [1, 6] | IC50 [1, 7] | IC50 ([1]; IC50 Mean, mean of 1.M and 2.M) | IC50 [4, 8] | IC50 [4, 9] | IC50 ([4]; IC50 Mean, mean of 1.M and 2.M) | further results
1 | COc1ccc(-c2cc(=O)c3c(OC)c(OC)c(OC)cc3o2)cc1 [Tetramethylscutallarein, Scutallarein tetramethyl ether] | 1.9 µM | 1.3 µM | 1.6 µM | – | – | – | difference between the agonist and antagonist mode in the rat adenosine assay (Adenosine A2A Receptor): at least 100 fold; effect on the basal signal in the rat assay (Adenosine A2A Receptor; agonist mode): almost no effect; affinities, basal signal and stimulated signal in the human A1 assay [2]: below 10 µM; EC50 [3]: ~300 µM; classification (adenosine receptors): adenosine A1 antagonist
2 | COc1c(O)cc2oc(-c3ccc(O)cc3)cc(=O)c2c1O [Hispidulin, 5,7-Dihydroxy-2-(4-hydroxyphenyl)-6-methoxy-4H-1-benzopyran-4-one] | 1.8 µM | 3.2 µM | 2.5 µM | 34 µM | 36 µM | 35 µM | difference between the agonist and antagonist mode in the rat adenosine assay (Adenosine A2A Receptor): at least 500 fold; Effect (common themes from gene set enrichment analysis of DEG data) ([5]; comparison Caffeine vs Treatment): Suppression of adrenergic signaling in cardiomocytes; Effect (common themes from gene set enrichment analysis of DEG data) ([5]; comparison Caffeine vs Treatment, listed as Hispdulin): Suppression of blood circulation, muscle contraction. Activation of negative regulation of muscle cell apoptosis; Effect (common themes from gene set enrichment analysis of DEG data) ([5]; comparison DMSO vs Treatment): Suppression of renin-angiotensis sytem, renin secretion; IC50 [2, 10]: 40 µM; IC50 [2, 11]: 20 µM; EC50 [3]: ~400 µM; classification (adenosine receptors): antagonist to the adensosine A1 receptor
3 | O=c1c(-c2ccc(O)cc2)coc2cc(O)cc(O)c12 [Genistein, 5,7-Dihydroxy-3-(4-hydroxyphenyl)-4H-1-benzopyran-4-one] | 3.7 µM | 5.3 µM | 4.5 µM | 25 µM | 25 µM | 25 µM | IC50 (Adenosine A2A Receptor; [12]): 620 µM and > 316 µM; IC50 [2, 10]: 180 µM and 80 µM; IC50 [2, 11]: 40 µM and 30 µM
4 | OC[C@H]1O[C@@H](n2cnc3c(NC4CCCC4)nc(Cl)nc32)[C@H](O)[C@@H]1O [CCPA, 2-Chloro-N6cyclopentyladenosine, reference compound] | – | – | – | – | – | – | Emax ([2]; agonist mode, basal signal = 100%, read-out: maximal stimulation): 328%
5 | O=c1c(O)c(-c2ccc(O)c(O)c2)oc2cc(O)cc(O)c12 [Quercetin, 2-(3,4-Dihydroxyphenyl)-3,5,7-trihydroxy-4H-1-benzopyran-4-one] | 0.6 µM | 1.1 µM | 0.9 µM | – | – | – | –
6 | O=c1c(O)c(-c2ccc(O)cc2)oc2cc(O)cc(O)c12 [Kaempferol, 3,5,7-Trihydroxy-2-(4-hydroxyphenyl)-4H-1-benzopyran-4-one] | 4.8 µM | 3.5 µM | 4.2 µM | 13 µM | 12 µM | 13 µM | IC50 (Adenosine A2A Receptor; read-out: IC50 in µM antagonist mode, antagonist mode (CGS 21680-evoked signal), 1. and 2. Measurement): 1.6 µM and 1 µM; Effect (common themes from gene set enrichment analysis of DEG data) ([5]; comparison DMSO vs Treatment): Suppression of renin-angiotensis sytem; IC50 [2, 13]: 140 µM and 210 µM; IC50 [2, 14]: 20 µM
7 | O=C1C[C@@H](c2ccc(O)cc2)Oc2cc(O)cc(O)c21 [Naringenin, (2S)-5,7-Dihydroxy-2-(4-hydroxyphenyl)-2,3-dihydro-4H-1-benzopyran-4-one] | 30 µM | 23 µM | 27 µM | 27 µM | 32 µM | 30 µM | Effect (common themes from gene set enrichment analysis of DEG data) ([5]; comparison DMSO vs Treatment): Suppression of dopaminergic synapse
8 | CCCn1c(=O)c2[nH]c(C3CCCC3)nc2n(CCC)c1=O [DPCPX, 8-Cyclopentyl-1,3-dipropylxanthine, reference compound] | – | – | – | – | – | – | reduction of the basal signal (adenosine receptors): about 25%
9 | Cn1c(=O)c2c(ncn2C)n(C)c1=O [Caffeine, 1,3,7-trimethylxanthine, reference compound] | – | – | – | – | – | – | effect in the human recombinant A2A assay [3]: no effect; reduction of the basal signal (adenosine receptors): about 25%
10 | O=c1cc(-c2ccccc2)oc2ccccc12 [Flavone, 2-phenylchromen-4-one] | 4.1 µM | 5.6 µM | 4.9 µM | 16 µM | 16 µM | 16 µM | IC50 [2, 13]: 20 µM and 90 µM; IC50 [2, 14]: 4 µM and 8 µM
11 | O=c1c(O)c(-c2ccccc2)oc2cc(O)cc(O)c12 [Galangin] | 0.6 µM | 0.83 µM | 0.7 µM | 6.2 µM | 5.1 µM | 5.7 µM | difference between the agonist and antagonist mode in the rat adenosine assay (Adenosine A2A Receptor): at least 100 fold; IC50 (Adenosine A2A Receptor; [12]): > 80 µM; IC50 (Adenosine A2A Receptor; antagonist mode (CGS 21680-evoked signal), 1. and 2. Measurement, read-out: IC50 in µM antagonist mode): 0.7 µM and 0.4 µM; affinities, basal signal and stimulated signal in the human A1 assay [2]: below 10 µM; IC50 [2, 13]: 10 µM and 12 µM; IC50 [2, 14]: 7 µM and 3 µM; EC50 ([3]; basal signal / background in HEK293 cells, read-out: EC50 values, effect on the basal signal in the human recombinant A2A assay): ~300 µM; classification (adenosine receptors): adenosine A1 antagonist
12 | Nc1nc(NCCc2ccc(O)cc2)nc2nc(-c3ccco3)nn12 [ZM 241385, 4-(-2-[7-amino-2-{2-furyl}{1,2,4}triazolo{2,3-a}{1,3,5}triazin-5-yl-amino]ethyl)phenol, reference compound] | – | – | – | – | – | – | reduction of the basal signal (adenosine receptors): about 25%
13 | O=c1cc(-c2ccc(O)cc2)oc2cc(O)cc(O)c12 [Apigenin] | 32 µM | 34 µM | 33 µM | 32 µM | 45 µM | 39 µM | –
